From patent US20020160413A1, “COMBINATORIAL LIBRARIES” (priority 1998, published 2002)

Experiments:
Format in all cases: binding
oligo (dA•dT) = assay: Affinity selection of amine/salicylaldehyde/Zn2+ library on DNA-cellulose resin, HPLC of derivatized amines in initial elution; settings: 164 μM each amine, 82 μM salicylaldehyde
Procedure: For each sample, 15 mg oligo(dT) cellulose was weighed into a 2 ml Bio-Rad BIOSPIN™ polypropylene chromatography column equipped with a glass frit. The resin was then taken up in 750 μl HEPES buffer (10 mM HEPES, 100 mM KC1, pH 6.8). 0.5 A(260) units of oligo(dA) were then added in 50 μl H2O and allowed to incubate on the resin for one hour at ambient temperature prior to the addition of library samples. During this pre-incubation period, as well as throughout the remainder of the experiments, gentle agitation was provided by rotating the samples on a Barnstead-Thermolyne LAB QUAKE™ rotary shaker. In a similar manner, 15 mg of unfunctionalized cellulose for each control experiment was allowed to soak in 800 μl HEPES buffer at ambient temperature for one hour prior to the addition of library samples.
As one skilled in the are will note, the complexes shown above represent only a subset of the complexes that would be present in this equilibrium. Samples were prepared in triplicate from stock solutions as indicated in Table 1 to provide a total volume of 450 μl. An identical set of samples was prepared for control experiments. In each case, libraries were allowed to incubate at ambient temperature for one hour prior to addition to the DNA-cellulose or control cellulose resin. Additional sets of library samples were prepared according to lines C and D of Table 1 for control experiments conducted in the absence of DNA-cellulose or unfunctionalized cellulose resin.
Following the pre-incubation period, each sample was added to either a DNA-cellulose or unfunctionalized cellulose column as appropriate. These samples were then allowed to incubate on the resin with gentle agitation at ambient temperature for six hours. Solutions were then eluted from the resin, frozen, and lyophilized prior to derivatization and analysis as described below. […]
In order to separate and identify as many constituents of each sample as possible, a minimum of two HPLC elutions were performed for each sample. […] Elutions were monitored at 230 nm. […]

[1] = system: double-stranded oligo(dA)-oligo(dT); assay: Affinity selection and amplification of salicylaldimine library on double-stranded DNA affinity column; settings: for retention on the affinity column in the presence of zinc: 0.5 mM each of 8-13, with 26 MM ZnCl2, normalized to values in the absence of zinc, two-hour incubation
Source text: A serious potential problem with the selection and amplification of a single compound from an equilibrating mixture of complexes is that of identifying the desired high-affinity species. First, if the selection is not complete for a single compound, the separation and identification of a potentially large number of complexes presents a significant analytical challenge. Furthermore, since reequilibration of complexes can occur once the affinity resin is removed, it might be expected that binding information would be lost. […] Application of this technique to the eluent from an affinity column would permit deconvolution of the library to provide information about the identity of binding complexes.
With a series of monomers, verification of self-assembly in aqueous solutions, and a separation method in hand, the experimental tools were in place to conduct an affinity selection and amplification experiment. A standard solution of 0.5 mM 8-13 (total concentration 3 mM in “monomer”) was prepared in 10 mM Tris•HCl, 100 mM KCl, 1% DMSO, pH 7.5. To determine the effect of zinc on the observed selection, samples were prepared either with or without 26 MM ZnCl2. Samples were allowed to incubate for one hour to allow an equilibrium mixture of complexes to form, and the latter were then individually added to affinity columns prepared from 30 mg of commercial poly(dT)-cellulose resin (Pharmacia Biotech) preincubated with one A260 unit (approximately 7 nmol) of oligo (dA)12-18(Oligo (dA)12-18 as obtained from Pharmacia Biotech is a mixture of homopolymeric, single-stranded DNA of length 12 to 18) in 10 mM Tris•HCl, 100 mM KCl, pH 7.5 for formation of double-stranded DNA (giving an approximate, average complex:base pair ratio of 85:1). Following a two-hour incubation of the libraries on the resin, solutions were eluted, lyophilized, and derivatized as described above.

[2] = Control selection of salicylaldimine library on cellulose alone; settings: conditions identical to double-stranded experiment
[3] = system: single-stranded oligo(dT)-cellulose; assay: Control selection of salicylaldimine library on single-stranded oligo(dT)-cellulose; settings: conditions identical to double-stranded experiment
[4] = 41 μM Zn2+, normalized to zinc-free samples

NCCCO [Amine 6, 3-hydroxypropylamine]
reduction in the amount of derivatized amine in initial elution (oligo (dA•dT); [4]): > 50%

Oc1ccccc1/C=N/CCc1ccccn1 [monomer 12]
derivatized monomer eluted in the presence of zinc versus absence of zinc ([1]; 0.5 mM each of 8-13, with or without 26 MM ZnCl2): twice as much

Oc1ccccc1/C=N/CC1CCCO1 (stereo not drawn) [monomer 11]
retention on cellulose, presence versus absence of zinc [2]: more strongly retained
retention on the affinity column in the presence of zinc [1]: most strongly retained

CN1CCCC1CCN (stereo not drawn) [Amine 4, N-methyl 2-aminoethyl pyrrolidine]
amount retained on the column at higher Zn2+ versus 41 μM Zn2+ (oligo (dA•dT); 82 μM Zn2+): significant reduction in the amount of 4 retained
reduction in the amount of derivatized amine in initial elution (in words) (oligo (dA•dT); [4]): significant reduction

CN1CCCC1CC/N=C/c1ccccc1O (stereo not drawn) [monomer 9]
retention on cellulose, presence versus absence of zinc [2]: to the same extent
retention on the affinity column in the presence of zinc [1]: most strongly retained
retention on oligo(dT)-cellulose, presence versus absence of zinc [3]: to the same extent
